Common to all, as to experiment: NCI anticancer screen, dose series, 48 h
The test system of assay [1] is KM20L2 colon.
Assay [2] has as its system RPMI-8226 leukemia.
The subject of assay [3] is ACHN renal.
The subject of assay [4] is SF-268 CNS.
Assay [5] has as its system COLO 205 colon.
Assay [6] has as its system OVCAR-8 ovarian.
Assay [7] relates to K-562 leukemia.
In assay [8] the test system is SNB-78 CNS.
In assay [9] the test system is HL-60(TB) leukemia.
Assay [10] has as its system T-47D breast.

Structures are written as SMILES.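 Five concentrations, 48 hours, 96-well plates. At the GI50, growth is halved. TGI is the concentration that stops growth completely.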

As for `CCOC(=O)C1(Br)C(c2ccccc2)NC(=O)N(C2OC(COC(=O)c3ccccc3)C(OC(=O)c3ccccc3)C2OC(=O)c2ccccc2)C1(C)Br` (centres undefined), the TGI in assay [1] was greater than 100 µM; in assay [2], 33.2 µM; in assay [3], greater than 100 µM; in [4] it was greater than 100 µM; in assay [5] it was greater than 65.7 µM; in [6] it was greater than 100 µM. Besides, the TGI in [7] was found to be 19.3 µM.

`NC1=NN(c2ccccc2)C(=O)C1/C(=N\NC(=O)c1cc2ccccc2cc1O)C(=O)Nc1nc([N+](=O)[O-])cs1` (centres undefined): the TGI was greater than 100 µM in [1]; 87.8 µM in assay [2]; greater than 100 µM in assay [8]; greater than 100 µM in assay [3]; greater than 100 µM in [4]; 54.8 µM in assay [5]. The TGI in assay [6] came out at 62.6 µM; in assay [7], 42.2 µM; in assay [9], 37.9 µM.

Turning to `O=C(O)c1c([N+](=O)[O-])cc(C(F)(F)F)cc1[N+](=O)[O-]`, the TGI in [1], in [2], in assay [8], in assay [3], in [4] and in assay [5] was greater than 100 µM throughout. The TGI in assay [6], in [7] and in [9] was greater than 100 µM each time.

Regarding `O=C(c1ccco1)c1ccccc1C(=O)c1ccco1`, the TGI in assay [1], in [8], in [3], in assay [4], in assay [5] and in assay [6] was greater than 100 µM each time. The TGI in assay [7] and in assay [9] was greater than 100 µM throughout.

On to `CN(C)CCNC(=O)c1cccc2ccc(-c3cccnc3)nc12`, for which the TGI in [8] is 72.4 µM; in assay [3], 23.2 µM; in assay [4] it was 26.3 µM; in assay [5], 13.6 µM; in [6], greater than 100 µM; in [7], greater than 100 µM. In assay [9], this compound displayed a TGI greater than 100 µM.

For the compound `COc1cc[c]([Sb]([Br])([CH]=C(C)C)([CH]=C(C)C)[CH]=C(C)C)cc1`, the GI50 was 5.06 µM in [1]; 0.868 µM in assay [2]; 21.7 µM in [3]; 3.52 µM in assay [4]; 1.95 µM in [5]; 8.15 µM in assay [6]. For the same compound, the figures for the GI50 in assay [7] and in [9] were 4.54 µM and 1.73 µM, respectively. Also, the TGI is greater than 100 µM in assay [1]; 5.47 µM in assay [2]; greater than 100 µM in [3]; 35.8 µM in [4]; 7.99 µM in assay [5]; greater than 100 µM in assay [6]. Further, the results for the TGI in [7] and in assay [9] were greater than 100 µM and 13.7 µM, respectively.

As for `CCCCCCCCCCCCC/C=C1\C[C@H](O)COC1=O`, the TGI in assay [1] was 31.7 µM; in assay [2], 41 µM; in assay [8] it was 33.9 µM; in assay [3], 29.4 µM; in [4], 38 µM; in assay [7], 33.1 µM. Besides, the TGI in assay [9] was 39.9 µM.

`CC1(C(=O)NCCN(CCNC(=O)C2(C)CC3(C)CC(C)(C2)C(=O)NC3=O)CCNC(=O)C2(C)CC3(C)CC(C)(C2)C(=O)NC3=O)CC2(C)CC(C)(C1)C(=O)NC2=O` (centres undefined): the TGI in assay [1], in [2], in assay [8], in assay [3], in assay [5] and in [6] was greater than 100 µM throughout. The TGI in [7] and in assay [9] was greater than 100 µM in each case.

As to `COc1ccc2nc3ccccc3c(NCCCCCN(CCCl)CCCl)c2c1`, the TGI in assay [1] was 1.02 µM; in assay [2], 0.206 µM; in assay [8], 2.96 µM; in assay [3], 0.748 µM; in [4], 0.329 µM; in assay [5] it was 0.429 µM. Moreover, the TGI in assay [6] came out at 2.2 µM; in [7] it was 0.502 µM; in assay [9] it was 0.0881 µM.

Take `[C-]#[O+].[C-]#[O+].[Ir].[O-]c1ccc2ccccc2c1N=Nc1ccccc1`: the TGI in assay [2] worked out at 45.2 µM; in [8] it was 53 µM; in [3], 13.8 µM; in assay [4], 61.5 µM; in assay [5], 3.7 µM; in [6], 38.7 µM. Further, the TGI in [7] worked out at 80.4 µM; in assay [9] it was 7.76 µM; in assay [10], 33.5 µM. The GI50 in [8] is 24.3 µM; in assay [4], 22.7 µM; in assay [6] it was 13.6 µM; in assay [10], 11.9 µM.

`O=C(c1ccccn1)c1nc(-c2ccc(Cl)c(Cl)c2)nc2ccc(Cl)cc12`: the TGI in assay [1], in assay [2], in assay [8], in [3], in [6] and in assay [7] was greater than 100 µM in each case. This compound also gave a TGI in [9] greater than 100 µM.

On to `C/C=C/C(=O)[C@@H](O)C(C)C`, for which the TGI in assay [1], in [2], in assay [8], in assay [3], in assay [4] and in assay [5] was greater than 100 µM in each case. Besides, the TGI in assay [6] and in [7] was greater than 100 µM each time.

For `Clc1ccccc1C1N2CCCCC2[C@@H]2c3[nH]c4ccccc4c3CCN12` (some centres undefined), the TGI in assay [1] is 34.1 µM; in assay [2], 66.6 µM; in [8], 61.1 µM; in assay [3], 45.8 µM; in assay [4], 38.4 µM; in [5] it was 37.4 µM. Further, the TGI is 39.9 µM in assay [6], 44.2 µM in assay [7] and greater than 100 µM in assay [9].

Consider `N.N.N.N.N.N#N.[Cl-].[Os+7]`, for which the GI50 in assay [1], in assay [2], in assay [8], in assay [4], in assay [5] and in assay [6] was greater than 100 µM in each case. Further, the TGI in [1], in assay [2], in [8], in [4], in assay [5] and in [6] was greater than 100 µM in each case.
